Test results from ChEMBL document CHEMBL3045490, “N-Thiophenylethyl-2,2-dichloro-1-cyclopropanecarboxamides: modification of the amide part of carpropamid and examination of fungicidal activity” (2009).

Columns and labels:
Type in all cases: functional
Puccinia recondita = assay: Antifungal activity against Puccinia recondita in wheat plant assessed as lesion area of the disease at 500 ug/ml after 10 days
Blumeria graminis = assay: Antifungal activity against Blumeria graminis in wheat plant assessed as lesion area of the disease at 500 ug/ml after 10 days
Botrytis cinerea = assay: Antifungal activity against Botryotinia fuckeliana in cucumber cotyledon assessed as lesion area of the disease at 500 ug/ml after 4 days
[1] = system: Pseudoperonospora cubensis; assay: Antifungal activity against Pseudoperonospora cubensis in cucumber assessed as lesion area of the disease at 500 ug/ml after 7 days

Compound	Activity (Puccinia recondita)	Activity (Blumeria graminis)	Activity (Botrytis cinerea)	Activity [1]
CCC1(C(=O)OCCc2csc(Cl)c2)C(C)C1(Cl)Cl (stereo unspecified)	>=80%	>=80%	2.5%	<20%
CCC1(C(=O)NCCc2cc(Cl)sc2Cl)C(C)C1(Cl)Cl (stereo unspecified)	>=80%	>=80%	>=80%	>=80%
CCC1(C(=O)NCC(C)c2ccc(Cl)cc2)C(C)C1(Cl)Cl (stereo unspecified)	>=80%	>=80%	>=80%	<20%
CCC1(C(=O)NCCc2ccc(Cl)c(Cl)c2)C(C)C1(Cl)Cl (stereo unspecified)	3.5%	>=80%	>=80%	0%
CCC(C)NC(=O)C1(CC)C(C)C1(Cl)Cl (stereo unspecified)	>=80%	>=80%	<20%	>=80%
CCC1(C(=O)NCCc2cc(Cl)c(Cl)s2)C(C)C1(Cl)Cl (stereo unspecified)	>=80%	>=80%	>=80%	>=80%
CCC1(C(=O)NCCc2cccc(Cl)c2)C(C)C1(Cl)Cl (stereo unspecified)	<40%	2.5%	>=80%	0%
CCC1(C(=O)NC(C)CC(F)(F)F)C(C)C1(Cl)Cl (stereo unspecified)	>=80%	>=80%	>=80%	>=80%
CC(C)(C)C(Br)C(=O)NCCc1csc(Cl)c1 (stereo unspecified)	<20%	>=80%	>=80%	>=80%
CCC1(C(=O)NCCc2ccc(F)cc2F)C(C)C1(Cl)Cl (stereo unspecified)	>=80%	2.5%	<20%	0%
CC1(C)C(C(=O)NCCc2csc(Cl)c2)C1(Cl)Cl (stereo unspecified)	1.5%	>=80%	>=80%	1.5%
CCC1(C(=O)NCCCc2ccc(Cl)cc2)C(C)C1(Cl)Cl (stereo unspecified)	>=80%	>=80%	>=80%	0%
CCC1(C(=O)NCCc2ccc(C)cc2)C(C)C1(Cl)Cl (stereo unspecified)	>=80%	2.5%	>=80%	>=80%
CCC1(C(=O)NCCc2ccc(F)cc2)C(C)C1(Cl)Cl (stereo unspecified)	<40%	<20%	>=80%	>=80%
CCC1(C(=O)NC(C)C2CCC2)C(C)C1(Cl)Cl (stereo unspecified)	>=80%	>=80%	>=80%	>=80%
CCC1(C(=O)NCCc2ccsc2)C(C)C1(Cl)Cl (stereo unspecified)	<40%	>=80%	>=80%	>=80%
CCC1(C(=O)NCCc2cc(Cl)cs2)C(C)C1(Cl)Cl (stereo unspecified)	<40%	>=80%	>=80%	>=80%
N#Cc1c[nH]cc1-c1cccc2c1OC(F)(F)O2 [FLUDIOXONIL]	–	–	0%	–
maneb	0%	–	–	0%
CCC1(C(=O)NCCc2ccc(Br)cc2)C(C)C1(Cl)Cl (stereo unspecified)	>=80%	>=80%	>=80%	>=80%
CC(Cc1ccc(C(C)(C)C)cc1)CN1CCCCC1 (stereo unspecified) [FENPROPIDIN]	–	0%	–	–
CCC1(C(=O)NCCc2ccc(Cl)cc2)C(C)C1(Cl)Cl (stereo unspecified)	>=80%	>=80%	>=80%	3.5%
CCC1(C(=O)Nc2ccc(Cl)cc2)C(C)C1(Cl)Cl (stereo unspecified)	>=80%	>=80%	>=80%	>=80%
CCC1(C(=O)NC(C)Cc2ccc(Cl)cc2)C(C)C1(Cl)Cl (stereo unspecified)	>=80%	>=80%	>=80%	>=80%
CC(C)(C)C(Cl)C(=O)NCCc1csc(Cl)c1 (stereo unspecified)	>=80%	>=80%	>=80%	>=80%
CCC1(C(=O)NCCc2cc(Br)cs2)C(C)C1(Cl)Cl (stereo unspecified)	>=80%	>=80%	<40%	0%

Compound	Activity (Puccinia recondita)	Activity (Blumeria graminis)	Activity (Botrytis cinerea)	Activity [1]
CCC1(C(=O)NC(C)C2CC2(Cl)Cl)C(C)C1(Cl)Cl (stereo unspecified)	>=80%	>=80%	>=80%	>=80%
CCC1(C(=O)NC(C)c2ccc(Cl)s2)C(C)C1(Cl)Cl (stereo unspecified)	1.5%	>=80%	>=80%	>=80%
CC1(C)C(Cl)(Cl)C1(C)C(=O)NCCc1csc(Cl)c1 (stereo unspecified)	0.5%	<20%	>=80%	>=80%
CC(C)(C)CC(=O)NCCc1csc(Cl)c1	>=80%	1.5%	>=80%	>=80%
CC(NC(=O)C1(c2ccccc2)CC1(Cl)Cl)c1ccc(Cl)cc1 (stereo unspecified)	>=80%	>=80%	>=80%	>=80%
CC(C)(C)C(C#N)C(=O)NCCc1csc(Cl)c1 (stereo unspecified)	1.5%	>=80%	>=80%	>=80%
CC[C@@]1(C(=O)N[C@H](C)c2ccc(Cl)cc2)[C@@H](C)C1(Cl)Cl [CARPROPAMIDE]	>=80%	>=80%	>=80%	0.5%
CCC1(C(=O)NCCc2csc(Cl)n2)C(C)C1(Cl)Cl (stereo unspecified)	0.5%	>=80%	>=80%	0%
CCC1(C(=O)NC(C)C2CCCCC2)C(C)C1(Cl)Cl (stereo unspecified)	>=80%	>=80%	>=80%	>=80%
CCCC1(C(=O)NCCc2csc(Cl)c2)CC1(Cl)Cl (stereo unspecified)	>=80%	>=80%	0.5%	>=80%
CCC1(C(=O)NCCc2csc(Cl)c2)C(C)C1(Cl)Cl (stereo unspecified)	>=80%	>=80%	>=80%	0.5%
CCC1(C(=O)NC(C)c2csc(Cl)c2)C(C)C1(Cl)Cl (stereo unspecified)	>=80%	>=80%	>=80%	<20%
CC(NC(=O)C1(C(C)C)CC1(Cl)Cl)c1ccc(Cl)cc1 (stereo unspecified)	<20%	>=80%	>=80%	>=80%
CC1(C(=O)NCCc2csc(Cl)c2)CC1(Cl)Cl (stereo unspecified)	0.5%	>=80%	>=80%	0.5%
CCC1(C(=O)NCc2ccc(Cl)cc2)C(C)C1(Cl)Cl (stereo unspecified)	>=80%	>=80%	>=80%	<20%
CCC1(C(=O)NC(C)C)C(C)C1(Cl)Cl (stereo unspecified)	>=80%	>=80%	3.5%	0%
CCC1(C(=O)NCCc2ccc(Cl)s2)C(C)C1(Cl)Cl (stereo unspecified)	1.5%	>=80%	>=80%	>=80%
CC(NC(=O)C1(C2CCCC2)CC1(Cl)Cl)c1ccc(Cl)cc1 (stereo unspecified)	>=80%	>=80%	>=80%	>=80%
CCC1(C(=O)NC(C)C2CCCC2)C(C)C1(Cl)Cl (stereo unspecified)	>=80%	>=80%	3.5%	0%
CCC1(C(=O)NCCc2ccc(C(F)(F)F)cc2)C(C)C1(Cl)Cl (stereo unspecified)	>=80%	0.5%	>=80%	>=80%
CCC1(C(=O)NCCc2ccc(Cl)cc2Cl)C(C)C1(Cl)Cl (stereo unspecified)	>=80%	>=80%	>=80%	>=80%
CCC1(C(=O)NCCc2ccccc2)C(C)C1(Cl)Cl (stereo unspecified)	1.5%	0.5%	>=80%	0%
CCC1(C(=O)NCCc2ccccc2Cl)C(C)C1(Cl)Cl (stereo unspecified)	>=80%	>=80%	>=80%	>=80%
CCC1(C(=O)NC(C)C2CC3C=CC2C3)C(C)C1(Cl)Cl (stereo unspecified)	>=80%	>=80%	<40%	>=80%
CCC1(C(=O)NC(C)C2CCCCCC2)C(C)C1(Cl)Cl (stereo unspecified)	>=80%	>=80%	>=80%	0%
